Patent publication US10150758B2, “PRMT5 inhibitors and uses thereof” (Epizyme, Inc., priority 2012, dated 2018)
pEC50, pIC50: −log10 of the molar value.

Legend:
PRMT5/MEP50 = PRMT5/MEP50 (Homo sapiens (Human), UniProt O14744); assay: PRMT5 Biochemical Assay (PRMT5/MEP50 enzyme assay on peptide substrate, 3H-SAM Flashplate); conditions: PRMT5/MEP50 4 nM, 3H-SAM 75 nM, peptide 40 nM
Description: S-adenosylmethionine (SAM), S-adenosylhomocysteine (SAH), bicine, KCl, Tween20, dimethylsulfoxide (DMSO), bovine skin gelatin (BSG), and Tris(2-carboxyethyl)phosphine hydrochloride solution (TCEP) were purchased from Sigma-Aldrich at the highest level of purity possible. ^3H-SAM was purchase from American Radiolabeled Chemicals with a specific activity of 80 Ci/mmol. 384-well streptavidin Flashplates were purchased from PerkinElmer.
Peptide representative of human histone H4 residues 1-15 was synthesized with a C-terminal linker-affinity tag motif and a C-terminal amide cap by 21st Century Biochemicals. The peptide was high high-perfomance liquid chromatography (HPLC) purified to greater than 95% purity and confirmed by liquid chromatography mass spectrometry (LC-MS). The sequence was Ac-[…][K-Biot]-amide (SEQ ID NO.:3).
Full-length human PRMT5 (NM_006109.3) transcript variant 1 clone was amplified from a fetal brain cDNA library, incorporating flanking 5′ sequence encoding a FLAG tag ([…]) (SEQ ID NO.:4) fused directly to Ala 2 of PRMT5. Full-length human MEP50 (NM_024102) clone was amplified from a human testis cDNA library incorporating a 5′ sequence encoding a 6-histidine tag (MHHHHHH) (SEQ ID NO.:5) fused directly to Arg 2 of MEP50. The amplified genes were sublconed into pENTR/D/TEV (Life Technologies) and subsequently transferred by Gateway™ attL×attR recombination to pDEST8 baculvirus expression vector (Life Technologies).
Recombinant baculovirus and Baculovirus-Infected Insect Cells (BIIC) were generated according to Bac-to-Bac kit instructions (Life Technologies) and Wasilko, 2006, respectively. Protein over-expression was accomplished by infecting exponentially growing Spodoptera frugiperda (SF9) cell culture at 1.2×10^6 cell/ml with a 5000 fold dilution of BIIC stock. Infections were carried out at 27° C. for 72 hours, harvested by centrifugation, and stored at −80° C. for purification.
Flag-PRMT5/6His-MeP50 was eluted with 300 mM Imidazole in the same buffer. The purity of recovered protein was 87%. Reference: Wasilko, D. J. and S. E. Lee: “TIPS: titerless infected-cells preservation and scale-up” Bioprocess J., 5 (2006), pp. 29-32.
General Procedure for PRMT5/MEP50 Enzyme Assays on Peptide Substrates.
The assays were all performed in a buffer consisting of 20 mM Bicine (pH=7.6), 1 mM TCEP, 0.005% BSG, and 0.002% Tween20, prepared on the day of use. Compounds in 100% DMSO (1 ul) were spotted into a polypropylene 384-well V-bottom plates (Greiner) using a Platemate Plus outfitted with a 384-channel head (Thermo Scientific). DMSO (1 ul) was added to Columns 11, 12, 23, 24, rows A-H for the maximum signal control and 1 ul of SAH, a known product and inhibitor of PRMT5/MEP50, was added to columns 11, 12, 23, 24, rows I-P for the minimum signal control. A cocktail (40 ul) containing the PRMT5/MEP50 enzyme and the peptide was added by Multidrop Combi (Thermo-Fisher). The compounds were allowed to incubate with PRMT5/MEP50 for 30 min at 25 degrees Celsius, then a cocktail (10 ul) containing ^3H-SAM was added to initiate the reaction (final volume=51 ul). The final concentrations of the components were as follows: PRMT5/MEP50 was 4 nM, ^3H-SAM was 75 nM, peptide was 40 nM, SAH in the minimum signal control wells was 100 uM, and the DMSO concentration was 1%. The assays were stopped by the addition of non-radioactive SAM (10 ul) to a final concentration of 600 uM, which dilutes the ^3H-SAM to a level where its incorporation into the peptide substrate is no longer detectable. 50 ul of the reaction in the 384-well polypropylene plate was then transferred to a 384-well Flashplate and the biotinylated peptides were allowed to bind to the streptavidin surface for at least 1 hour before being washed three times with 0.1% Tween20 in a Biotek ELx405 plate washer. […]

[1] = system: symmetric di-methyl arginine in Z-138 cells; assay: Z-138 Methylation Assay (In Cell Western for symmetric di-methyl arginine and DNA content); assay type: cell-based; conditions: Homo sapiens, 96 hours incubation, read-out: ICW EC50
Description: [formula] [formula] Where top and bottom are the normally allowed to float, but may be fixed at 100 or 0 respectively in a 3-parameter fit. The Hill Coefficient normally allowed to float but may also be fixed at 1 in a 3-parameter fit. Y is the % inhibition and X is the compound concentration. Z-138 Methylation Assay
Z-138 suspension cells were purchased from ATCC (American Type Culture Collection, Manassas, Va.). RPMI/Glutamax medium, penicillin-streptomycin, heat inactivated fetal bovine serum, and D-PBS were purchased from Life Technologies, Grand Island, N.Y., USA. Odyssey blocking buffer, 800CW goat anti-rabbit IgG (H+L) antibody, and Licor Odyssey infrared scanner were purchased from Licor Biosciences, Lincoln, Nebr., USA. Symmetric di-methyl arginine antibody was purchased from EMD Millipore, Billerica, Mass., USA. 16% Paraformaldehyde was purchased from Electron Microscopy Sciences, Hatfield, Pa., USA.
Z-138 suspension cells were maintained in growth medium (RPMI 1640 supplemented with 10% v/v heat inactivated fetal bovine serum and 100 units/mL penicillin-streptomycin) and cultured at 37° C. under 5% CO2.
Cell Treatment, in Cell Western (ICW) for Detection of Symmetric Di-Methyl Arginine and DNA Content.
Z-138 cells were seeded in assay medium at a concentration of 50,000 cells per mL to a 384-well cell culture plate with 50 μL per well. Compound (100 nL) from 384 well source plates was added directly to 384 well cell plate. Plates were incubated at 37° C., 5% CO2 for 96 hours. After four days of incubation, 40 μL of cells from incubated plates were added to poly-D-lysine coated 384 well culture plates (BD Biosciences 356697). Plates were incubated at room temperature for 30 minutes then incubated at 37° C., 5% CO2 for 5 hours. After the incubation, 40 μL per well of 8% paraformaldehyde in PBS (16% paraformaldahyde was diluted to 8% in PBS) was added to each plate and incubated for 30 minutes. Plates were transferred to a Biotek 405 plate washer and washed 5 times with 100 μL per well of wash buffer (1×PBS with 0.1% Triton X-100 (v/v)). Next 30 μL per well of Odyssey blocking buffer were added to each plate and incubated 1 hour at room temperature. Blocking buffer was removed and 20 μL per well of primary antibody was added (symmetric di-methyl arginine diluted 1:100 in Odyssey buffer with 0.1% Tween 20 (v/v)) and plates were incubated overnight (16 hours) at 4° C. Plates were washed 5 times with 100 μL per well of wash buffer. Next 20 μL per well of secondary antibody was added (1:200 800CW goat anti-rabbit IgG (H+L) antibody, 1:1000 DRAQ5 (Biostatus limited) in Odyssey buffer with 0.1% Tween 20 (v/v)) and incubated for 1 hour at room temperature. The plates were washed 5 times with 100 μL per well wash buffer then 1 time with 100 μL per well of water. Plates were allowed to dry at room temperature then imaged on the Licor Odyssey machine which measures integrated intensity at 700 nm and 800 nm wavelengths. Both 700 and 800 channels were scanned.
First, the ratio for each well was determined by:
Each plate included fourteen control wells of DMSO only treatment (minimum inhibition) as well as fourteen control wells for maximum inhibition treated with 3 μM of a reference compound (Background wells). The average of the ratio values for each control type was calculated and used to determine the percent inhibition for each test well in the plate. Reference compound was serially diluted three-fold in DMSO for a total of nine test concentrations, beginning at 3 μM. Percent inhibition was determined and IC50 curves were generated using triplicate wells per concentration of compound.

Z-138 cells = assay: Z-138 Proliferation Assay (Cell Titer Glo); assay type: cell-based; conditions: Homo sapiens, 120 h, 5 days, top concentration 20 μM
Description: [formula] Z-138 Proliferation Assay
Z-138 suspension cells were purchased from ATCC (American Type Culture Collection, Manassas, Va.). RPMI/Glutamax medium, penicillin-streptomycin, heat inactivated fetal bovine serum were purchased from Life Technologies, Grand Island, N.Y., USA. V-bottom polypropylene 384-well plates were purchased from Greiner Bio-One, Monroe, N.C., USA. Cell culture 384-well white opaque plates were purchased from Perkin Elmer, Waltham, Mass., USA. Cell-Titer Glo® was purchased from Promega Corporation, Madison, Wis., USA. SpectraMax M5 plate reader was purchased from Molecular Devices LLC, Sunnyvale, Calif., USA.
Z-138 suspension cells were maintained in growth medium (RPMI 1640 supplemented with 10% v/v heat inactivated fetal bovine serum and cultured at 37° C. under 5% CO2. Under assay conditions, cells were incubated in assay medium (RPMI 1640 supplemented with 10% v/v heat inactivated fetal bovine serum and 100 units/mL penicillin-streptomycin) at 37° C. under 5% CO2.
For the assessment of the effect of compounds on the proliferation of the Z-138 cell line, exponentially growing cells were plated in 384-well white opaque plates at a density of 10,000 cells/ml in a final volume of 50 μl of assay medium. A compound source plate was prepared by performing triplicate nine-point 3-fold serial dilutions in DMSO, beginning at 10 mM (final top concentration of compound in the assay was 20 μM and the DMSO was 0.2%). A 100 nL aliquot from the compound stock plate was added to its respective well in the cell plate. […] After addition of compounds, assay plates were incubated for 5 days at 37° C., 5% CO2, relative humidity >90%. Cell viability was measured by quantitation of ATP present in the cell cultures, adding 35 μl of Cell Titer Glo® reagent to the cell plates. Luminescence was read in the SpectraMax M5 microplate reader. The concentration of compound inhibiting cell viability by 50% was determined using a 4-parametric fit of the normalized dose response curves.

PRMT5/MEP50, sequence (O14744 other isoform, or with tags, fused parts or gaps): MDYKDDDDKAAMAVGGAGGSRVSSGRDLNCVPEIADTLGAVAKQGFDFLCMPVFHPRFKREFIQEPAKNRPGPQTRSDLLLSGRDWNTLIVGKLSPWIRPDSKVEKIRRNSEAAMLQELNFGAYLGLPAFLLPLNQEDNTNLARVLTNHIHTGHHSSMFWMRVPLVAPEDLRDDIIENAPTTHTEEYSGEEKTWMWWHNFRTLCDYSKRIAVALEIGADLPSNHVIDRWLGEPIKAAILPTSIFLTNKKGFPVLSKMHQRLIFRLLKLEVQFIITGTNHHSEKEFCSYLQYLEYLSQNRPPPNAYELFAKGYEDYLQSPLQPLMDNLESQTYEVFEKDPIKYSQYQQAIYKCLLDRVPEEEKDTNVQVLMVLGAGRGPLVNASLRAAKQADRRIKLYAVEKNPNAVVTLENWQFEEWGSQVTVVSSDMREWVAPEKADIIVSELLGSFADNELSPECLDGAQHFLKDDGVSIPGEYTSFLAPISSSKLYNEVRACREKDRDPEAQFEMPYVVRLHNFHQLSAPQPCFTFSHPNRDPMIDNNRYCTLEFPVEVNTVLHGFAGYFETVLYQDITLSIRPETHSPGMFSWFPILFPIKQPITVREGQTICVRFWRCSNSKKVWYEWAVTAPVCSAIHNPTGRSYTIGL
PRMT5/MEP50, sequence (Q9BQA1 other isoform, or with tags, fused parts or gaps partner): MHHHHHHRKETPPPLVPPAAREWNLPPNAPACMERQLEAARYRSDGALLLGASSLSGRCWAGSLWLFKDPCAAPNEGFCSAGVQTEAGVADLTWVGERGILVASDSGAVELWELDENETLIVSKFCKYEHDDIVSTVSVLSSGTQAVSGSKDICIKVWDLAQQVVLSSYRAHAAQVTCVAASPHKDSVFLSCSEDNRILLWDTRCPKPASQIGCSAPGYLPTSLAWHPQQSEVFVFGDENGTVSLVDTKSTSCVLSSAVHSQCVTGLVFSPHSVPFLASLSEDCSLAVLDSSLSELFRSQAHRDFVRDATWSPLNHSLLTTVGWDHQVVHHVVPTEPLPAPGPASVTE

| pIC50 (PRMT5/MEP50) | pEC50 [1] | SMILES | pEC50 (Z-138 cells) |
| --- | --- | --- | --- |
| 5.00 to 6.00 | – | CN(C)c1ccc(N2CCN(C[C@H](O)CN3CCc4ccccc4C3)C(=O)C2)cc1 [Compound 30] | – |
| – | < 4.30 | O=C1CN(c2ccccc2F)CCN1CC(O)CN1CCc2ccccc2C1 (stereo not shown) [Compound 11, 1-(3-(3,4-dihydroisoquinolin-2(1H)-yl)-2-hydroxypropyl)-4-(2-fluorophenyl)piperazin-2-one] | – |
| – | < 4.30 | Cc1ccccc1N1CCN(CC(O)CN2CCc3ccccc3C2)C(=O)C1 (stereo not shown) [Compound 10] | – |
| 4.30 to 5.00 | – | Cc1cccc(N2CCN(CC(O)CN3CCc4ccccc4C3)C(=O)C2)c1 (stereo not shown) [Compound 3, 1-(3-(3,4-dihydroisoquinolin-2(1H)-yl)-2-hydroxypropyl)-4-(m-tolyl)piperazin-2-one] | – |
| 5.00 to 6.00 | – | CC(=O)N1CCN(CC(O)CN2CCc3ccccc3C2)C(=O)C1 (stereo not shown) [Compound 21] | – |
| < 4.30 | – | CN1CCN(CC(O)CN2CCc3ccccc3C2)C(=O)C1 (stereo not shown) [Compound 27] | – |
| 5.00 to 6.00 | – | O=C1CN(Cc2ccccn2)CCN1CC(O)CN1CCc2ccccc2C1 (stereo not shown) [Compound 25] | – |
| > 7.00 | 5.00 to 6.00 | O=C1CN(c2cccc(Cl)c2)CCN1CC(O)CN1CCc2ccccc2C1 (stereo not shown) [Compound 5, 4-(3-chlorophenyl)-1-(3-(3,4-dihydroisoquinolin-2(1H)-yl)-2-hydroxypropyl)piperazin-2-one] | – |
| 5.00 to 6.00 | – | O=C1CN(Cc2cccnc2)CCN1CC(O)CN1CCc2ccccc2C1 (stereo not shown) [Compound 26] | – |
| 5.00 to 6.00 | – | O=C1CN(Cc2ccccc2)CCN1CC(O)CN1CCc2ccccc2C1 (stereo not shown) [Compound 24] | – |
| 6.00 to 7.00 | 5.00 to 6.00 | O=C1CN(c2ccc(CO)cc2)CCN1CC(O)CN1CCc2ccccc2C1 (stereo not shown) [Compound 20] | – |
| 5.00 to 6.00 | – | CS(=O)(=O)N1CCN(CC(O)CN2CCc3ccccc3C2)C(=O)C1 (stereo not shown) [Compound 22] | – |

Continued, compound first:

| SMILES | pIC50 (PRMT5/MEP50) | pEC50 [1] | pEC50 (Z-138 cells) |
| --- | --- | --- | --- |
| O=C1COCCN1CC(O)CN1CCc2ccccc2C1 (stereo not shown) [Compound 28] | 5.00 to 6.00 | – | – |
| O=C(NC1CCOCC1)c1ccn(CC(O)CN2CCc3ccccc3C2)c(=O)c1 (stereo not shown) [Compound 33] | – | 5.00 to 6.00 | < 4.70 |
| O=C1CC(c2ccccc2)CCN1C[C@@H](O)CN1CCc2ccccc2C1 (stereo partly shown) [Compound 17] | 5.00 to 6.00 | – | – |
| O=C1CC(c2ccccc2)CCN1C[C@H](O)CN1CCc2ccccc2C1 (stereo partly shown) [Compound 16] | 5.00 to 6.00 | – | – |
| O=C1CN(C2CCOCC2)CCN1CC(O)CN1CCc2ccccc2C1 (stereo not shown) [Compound 23] | 5.00 to 6.00 | – | – |
| O=c1cccc(CC(O)CN2CCc3ccccc3C2)[nH]1 (stereo not shown) [Compound 2] | 4.30 to 5.00 | – | – |
| O=c1cc(Nc2ccccc2)ccn1C[C@H](O)CN1CCc2ccccc2C1 [Compound 18] | 5.00 to 6.00 | – | – |
| O=C(NC1CCOCC1)C1CC(=O)N(CC(O)CN2CCc3ccccc3C2)C1 (stereo not shown) [Compound 32] | < 5.00 | – | – |
| O=c1cc(-c2ccccc2)ccn1C[C@@H](O)CN1CCc2ccccc2C1 [Compound 14] | – | < 4.30 | – |
| O=c1cc(-c2ccccc2)ccn1C[C@H](O)CN1CCc2ccccc2C1 [Compound 13] | – | < 4.30 | – |
